What was measured:
[1] = tested on: differentiated U937 cells; test: Phospholipidosis accumulation in differentiated U937 cells in co-culture set ups (HCS LipidTOX Green); assay type: cell-based, human; details: 10 μM amiodarone; differentiated U937 cells in three co-culture set ups
Protocol: The phospholipid accumulation was assessed using HCS LipidTOX™ Green phospholipidosis detection reagent. Phospholipidosis accumulation was detected in differentiated U937 cells cultured in LLI in three different co-culture set ups: A) Type I/II cells cultured in mixed 10:1 ratio in apical compartment, differentiated U937 (lilac) cells cultured at the basolateral compartment B) Type I/II cells cultured as a layers in a 10:1 ratio in apical compartment, differentiated U937 cells cultured at the basolateral compartment (blue), C) Type I cells cultured in the apical compartment and differentiated U937 cells were seeded on the underside of Transwell® inserts (green). […] A total of 5000 events were acquired on the flow cytometer.

U937 cells [2] = test: Long-term proliferation of PMA treated U937 cells (Guava ViaCount assay); assay type: cell-based, human; details: 100 nM PMA
Protocol: FIG. 6 illustrates the long-term proliferation of PMA treated U937 cells. […] Cell proliferation was assessed using Guava ViaCount assay via flow cytometry for 10,000 events. Results shown are representative for two repeated experiments performed in triplicate. Viable cells/mL are shown as mean±SD.

U937 cells [3] = test: Morphology of U937 cells with exposure to PMA; assay type: cell-based, human; details: 72 h, 100 nM PMA differentiation protocol
Protocol: FIG. 5 illustrates the morphology of U937 cells with exposure to PMA. U937 cells were cultured on chamber slides with medium supplemented with either 0 nM, 5 nM or 100 nM PMA and incubated for 24 h, 48 h, 72 h and 96 h followed by a 24 h recovery phase in fresh medium. Non-adherent PMA naive cells required centrifuge preparation. Primary human alveolar macrophages were harvested for morphological comparison. The cells were photographed at ×400 magnification with an inverted light microscope. (50 um scale bar).

U937 cells [4] = test: CD marker expression in PMA treated U937 cells (flow cytometry); assay type: cell-based, human
Protocol: Human monocytic U937 cells derived from pleural effusion were seeded at 5×10^5 cells/mL in a 24 well plate or on the underside of a culture insert with 3.25×10^5 cells per well with 100 nM phorbol 12-myristate 13-acetate (PMA) (dissolved in DMSO; <1% v/v) in complete RPMI medium (10% v/v FBS, 1% v/v penicillin-streptomycin, 2 mM L-glutamine). Cells were incubated for 72 h at 37° C., 5% v/v CO2 in a humidified incubator to differentiate the cells to mature macrophages. Following PMA incubation, media was replaced with fresh CCM and incubated for a further 24 h rest period. After the 24 h rest phase, U937/MØ were ready for co-culture assembly. U937/MØ cells were prepared in line with when epithelial cells were ready, i.e. day 5 for A549 and day 10 for hAELVi cells.
FIG. 3 illustrates the expression profiles of selected CD markers in PMA treated U937 cells and primary alveolar macrophages (pAM). CD markers are: (A) CD 11a, (B) CD 11b, (C) CD 14, (D) CD 36 and (E) CD 206. U937 cells treated with (0 nM, 5 nM, and 100 nM) PMA for 24 h to-96 h followed by a 24 h rest period in fresh culture medium. Expression of CD markers was measured by flow cytometry and are presented as median fluorescent intensity (MFI±SEM). […]

U937 cells [5] = test: Phagocytic activity of PMA treated U937 cells; assay type: cell-based, human; details: 72 h, 100 nM PMA differentiation protocol
From the text: FIG. 4 illustrates the phagocytic activity of PMA treated U937 cells and primary alveolar macrophages (pAM). Percentage of phagocytic cells (mean±SEM) from PMA treated U937 cells. (n=9) for each time point for U937 cells and n=3 for primary cells.

[6] = tested on: T I model (hAELVi + MØ), T II model (A549 + MØ); test: LDH release from co-cultures with LPS (cell health); assay type: cell-based, human; details: 10 ng/mL LPS, 24 h; both co-culture models
Protocol: FIGS. 25A and 25B illustrate the comparison of mono-culture and co-culture construction on cell health. Percentage of maximum LDH released into supernatants from cell populations normalised to 0.1% v/v Triton-X 100 positive control. LDH released from co-cultures: (T I) hAELVi and (T II) A549 cells in co-culture with MØ cells were assessed (A). MØ cells cultured with hAELVi cells (T I model) or A549 cells (T II model) were exposed to 10 ng/mL LPS (+LPS) for 24 h (B). A one way ANOVA was used to determine significance for each treatment group and Tukey's multiple comparison post hoc test employed when* p<0.05, p<0.001 Data shown represent n=6 data points±SD of three independent cell model experiments.

[7] = tested on: differentiated U937 cells (MØ); test: Phagocytic activity of differentiated U937 cells in mono-culture and co-cultures in the presence of LPS; assay type: cell-based, human; details: 10 ng/mL LPS, 24 h; both co-culture systems
Protocol: FIG. 23 illustrates a comparison of macrophages in mono-culture and co-cultures phagocytosis of microspheres. Differentiated U937 cells (MØ), MØ cells cultured with hAELVi cells (T I model) or A549 cells (T II model) exposed to 10 ng/mL LPS (+LPS) for 24 h. Phagocytosis assays were performed after 2 h incubation with 1.0 μm FluoSpheres™ Carboxylate-Modified microspheres using fluorescent microscopy. Images at 40× magnification. Scale bar is 100 μm.
FIGS. 24A and 24B illustrate phagocytic activity of differentiated U937 cells (MØ) in mono-culture and co-cultures in the presence of LPS. MØ cells cultured with hAELVi cells (T I model) or A549 cells (T II model) exposed to 10 ng/mL LPS (+LPS) for 24 h. Phagocytosis assays were performed after 2 h incubation with 1.0 μm FluoSpheres™ Carboxylate-Modified microspheres using flow cytometry. Cells were gated for 1000 events (A) per sample. […] Percentage of cells above the gated (R3) threshold (B) of mono and co-cultures. A one way ANOVA was used to determine significance for each treatment group and Tukey's multiple comparison post hoc test employed when* p<0.05, *** : p<0.0001 where n=3 independent models.

[8] = tested on: MØ, T I model, T II model; test: Human cytokine profile of mono-culture and co-culture models in LPS (array membranes); assay type: cell-based; details: LPS 100 ng/mL, 24 h
Protocol: FIG. 18 illustrates human cytokine profile of lower airway for ALI cell models. Detection of spots on array membranes from supernatant collect from mono-culture and co-cultures of: differentiated U937 cells (MØ) with LPS (MØ+LPS), hAELVi TI cells (T I), A549 TII cells (T II), type I co-culture model: hAELVi and MØ (T I model) with LPS (T I model+LPS), type II co-culture model: A549 and MØ (T II model) with LPS (T II model+LPS). Models were untreated or stimulated with 100 ng/mL LPS for 24 h. Controls are shown as positive (green) and negative (red). Data represents four independent Transwell® inserts. […] The data analysed in more detail in below figures.
FIG. 21 illustrates human cytokine profile of lower airway; T I &T I I models in the presence of LPS. […] Data represents mean signal intensity (AU) of each protein spot from the blot detected using chemiluminescence imaging and quantified using imageJ software for four independent Transwell® inserts±sd. […]
FIG. 22 illustrates human cytokine profile of lower airway of mono-culture and co-culture models in LPS. […] Data analysed by two-way ANOVA with Bonferroni post hoc test of non-stimulated cells vs LPS stimulation. […]

[9] = tested on: hAELVi and A549 cells in co-culture with MØ cells; test: TEER of alveolar epithelial cells in co-culture with LPS; assay type: cell-based, human; details: 10 ng/mL LPS, 24 h
Protocol: FIGS. 26A and 26B illustrate the impact of LPS on barrier properties of alveolar epithelial cells in co-culture. TEER measurements of (T I) hAELVi and (T II) A549 cells in co-culture with MØ cells. MØ cells cultured with hAELVi cells (T I model) or A549 cells (T II model) were exposed to 10 ng/mL LPS (+LPS) for 24 h. A one-way ANOVA was used to determine significance for each treatment group. Data shown represent n=3 of three independent cell model experiments (p>0.05).

co-culture models = test: IL-8 secretion of co-culture models after LPS (ELISA); assay type: cell-based, human; details: 100 ng/ml LPS
Protocol: FIG. 36 illustrates extent of immune response using IL-8 secretion. […] IL-8 levels detected from supernatants of co-culture models cultured under LLI/ALI post exposure to 100 ng/ml LPS. The IL-8 levels were quantified using ELISA assay. […] N=4, * indicates (p<0.05).

[10] = tested on: differentiated U937 cells (MØ), T I model, T II model; test: CD marker expression in LPS stimulated alveoli models (flow cytometry); assay type: cell-based, human; details: 10 ng/mL LPS, 24 h
Protocol: FIG. 17 illustrates CD marker expressions in LPS stimulated and non-stimulated alveoli models. Differentiated U937 cells (MØ), MØ cells cultured with hAELVi cells (T I model) or A549 cells (T II model) exposed to 10 ng/mL LPS (+LPS) for 24 h. Direct immunofluorescent staining assays for CD 11 b (A &C) and CD 36 (B & D) surface markers were performed using flow cytometry. A total of 5000 gated events were collected for each sample. MFI (median fluorescent intensity) data shown as mean±sd (n=9) for 3 independent models for Dunnett's post hoc test after one-way ANOVA where *#:p<0.005, *** :p<0.0001 vs MØ and MØ+LPS respectively.

CCCCc1oc2ccccc2c1C(=O)c1cc(I)c(OCCN(CC)CC)c(I)c1 [amiodarone]
phospholipidosis accumulation [1]: detected

CCCCCCCCCCCCCC(=O)O[C@@H]1[C@@H](C)[C@@]2(O)[C@@H](C=C(CO)C[C@]3(O)C(=O)C(C)=C[C@@H]23)[C@@H]2C(C)(C)[C@]12OC(C)=O [PMA, phorbol-12-myristate-13-acetate]
cell proliferation (U937 cells [2]; 24 h exposure): reduced | cell proliferation (U937 cells [2]; 96 h exposure): no | cell morphology (U937 cells [3]): most similar morphology to primary human alveolar macrophages | expression of CD36 and CD206 (M2 markers) (U937 cells [4]; PMA treated U937 cells): low | expression of cell surface markers selected to identify an alveolar macrophage phenotype (CD 11a, CD 11b, CD 14) (U937 cells [4]; U937 cells, 100 nM PMA, 72 h, 24 h rest, compared with primary human alveolar macrophages): optimally expressed | phagocytic functionality (U937 cells [5]): same phagocytic functionality of primary human alveolar macrophages

lipopolysaccharide [LPS]
cell viability (LDH release) [6]: not adversely affected | ability to phagocytose (1.0 μm microspheres) [7]: retain their ability to phagocytose | cytokine markers (signal intensity on array) [8]: elevated | barrier properties of the alveolar type I epithelial cells (TEER) [9]: not compromised | IL-8 secretion (co-culture models; all models): significantly increased | IL-8 secretion (co-culture models; combination type I and II epithelial models): significantly elevated | macrophage activation (CD11 b expression, absence of CD36 expression) [10]: likely to drive the macrophages to M1 type activation

Reference: patent US20230158068A1 (priority 2020, published 2023)
